According to US11141452B2, “Bifunctional compounds for relief of pain comprising an opioid receptor agonist moiety and a NK1 receptor antagonist moiety and methods for treating pain” (THE ARIZONA BOARD OF REGENTS ON BEHALF OF THE UNIVERSITY OF …, priority 2014, dated 2021):
Values joined by “and” are separate entries in the source; they are usually repeats but may differ in a detail not shown here. Identical values can stand only once. Like-named read-outs stand apart in the source and are kept apart here. Non-standard residues stand in square brackets, D forms with d. Residues, ends and D or L forms follow the SMILES beside them. *: point of attachment. NH(3,5-(CF3)2-benzyl) = FC(F)(F)c1cc(CN*)cc(C(F)(F)F)c1; NMeW = CN[C@@H](Cc1c[nH]c2ccccc12)C(=O)O; Dmt = Cc1cc(O)cc(C)c1C[C@H](N)C(=O)O; NMeF = CN[C@@H](Cc1ccccc1)C(=O)O

Experiments:
MOR [1] = test: Radioligand binding assay at μ opioid receptor; conditions: for Log[IC50±] (μ): log IC50 ± error; for Ki^μ/Ki^δ: ratio of binding affinities MOR/DOR
Method: (§1) Binding affinities of these ligands were measured on radioligand binding assays. […] ([43]).

DOR [2] = molecular target: DOR (Homo sapiens, UniProt P41143); test: Radioligand binding assay at δ opioid receptor; conditions: for Ki: Ki^δ (nM)
Method: as §1

hNK1 = molecular target: T1, hNK1 (Homo sapiens, UniProt P25103); test: hNK1/CHO cell membrane radioligand binding assay ([3H]SP); conditions: for Ki: hNK1/CHO membranes, [3H]SP; for Ki^hNK1/Ki^rNK1: ratio human/rat NK1
T1 construct: expressed in transfected cells; host or cells: CHO

rNK1 = rNK1 (Rattus norvegicus, UniProt P14600); test: Radioligand binding assay at rat NK1 receptor
Method: as §1

DOR [3] = molecular target: T2, DOR (Mus musculus, UniProt P32300); test: Mouse isolated vas deferens (MVD) functional assay; assay type: cell-based
T2 construct: Male ICR mice under CO2 anesthesia were sacrificed by cervical dislocation and the vasa differentia removed; from tissue; host or cells: mouse vas deferens (ICR mice)

NK1R = molecular target: T3, NK1R (Cavia porcellus, UniProt P30547); test: GPI/LMMP functional assay at NK1R (agonist and antagonist testing); assay type: cell-based, guinea pig; conditions: for GPI/LMMP (NK1R) Agonist: agonist activity at the concentration in the cell
T3 construct: The longitudinal muscle with myenteric plexus (LMMP) was carefully separated from the circular muscle; from tissue; host or cells: guinea pig ileum longitudinal muscle with myenteric plexus

MOR [4] = test: Guinea pig isolated ileum (GPI) functional assay; assay type: cell-based
[5] = MVD (DOR) IC50 (nM), agonist activity, electrically stimulated tissue
[6] = GPI/LMMP (NK1R) Ke (nM) ± S.E.M., antagonist activity
[7] = agonist activity, electrically stimulated tissue, read-out: GPI (MOR) IC50

Chain of rNK1 (P14600 whole entry): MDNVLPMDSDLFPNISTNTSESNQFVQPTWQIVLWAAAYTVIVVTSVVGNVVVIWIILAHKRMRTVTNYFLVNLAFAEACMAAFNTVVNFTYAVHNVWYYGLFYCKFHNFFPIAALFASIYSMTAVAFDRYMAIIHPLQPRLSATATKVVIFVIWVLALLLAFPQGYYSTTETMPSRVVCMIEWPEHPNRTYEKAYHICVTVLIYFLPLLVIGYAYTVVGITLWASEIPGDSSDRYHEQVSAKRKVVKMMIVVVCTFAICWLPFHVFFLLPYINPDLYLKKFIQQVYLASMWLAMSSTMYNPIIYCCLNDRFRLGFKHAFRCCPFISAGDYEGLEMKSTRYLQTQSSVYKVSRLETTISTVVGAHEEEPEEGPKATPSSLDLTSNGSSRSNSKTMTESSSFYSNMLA
T1 sequence (P25103 whole entry): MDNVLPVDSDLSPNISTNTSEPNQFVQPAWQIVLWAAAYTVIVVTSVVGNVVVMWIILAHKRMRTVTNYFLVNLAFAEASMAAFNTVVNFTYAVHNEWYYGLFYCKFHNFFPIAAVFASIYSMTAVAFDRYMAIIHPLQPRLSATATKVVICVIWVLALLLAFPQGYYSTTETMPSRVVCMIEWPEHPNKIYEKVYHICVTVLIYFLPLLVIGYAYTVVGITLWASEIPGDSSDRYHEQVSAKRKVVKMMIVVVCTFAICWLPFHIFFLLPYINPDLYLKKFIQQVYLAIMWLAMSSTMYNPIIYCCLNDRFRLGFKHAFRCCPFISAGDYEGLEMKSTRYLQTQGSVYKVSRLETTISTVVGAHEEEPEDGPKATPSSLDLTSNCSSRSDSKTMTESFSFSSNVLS
Chain of DOR (Homo sapiens, UniProt P41143) (P41143 whole entry): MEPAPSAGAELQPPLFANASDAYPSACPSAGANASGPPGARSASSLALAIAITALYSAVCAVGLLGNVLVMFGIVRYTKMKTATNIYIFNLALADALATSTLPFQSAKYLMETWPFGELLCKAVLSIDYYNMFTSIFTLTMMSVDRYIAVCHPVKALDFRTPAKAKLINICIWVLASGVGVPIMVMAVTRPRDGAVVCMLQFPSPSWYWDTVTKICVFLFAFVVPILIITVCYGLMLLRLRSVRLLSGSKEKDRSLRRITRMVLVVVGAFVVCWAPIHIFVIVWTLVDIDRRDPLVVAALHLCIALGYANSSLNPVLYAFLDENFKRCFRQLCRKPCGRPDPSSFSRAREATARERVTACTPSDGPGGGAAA
T2 sequence (P32300 whole entry): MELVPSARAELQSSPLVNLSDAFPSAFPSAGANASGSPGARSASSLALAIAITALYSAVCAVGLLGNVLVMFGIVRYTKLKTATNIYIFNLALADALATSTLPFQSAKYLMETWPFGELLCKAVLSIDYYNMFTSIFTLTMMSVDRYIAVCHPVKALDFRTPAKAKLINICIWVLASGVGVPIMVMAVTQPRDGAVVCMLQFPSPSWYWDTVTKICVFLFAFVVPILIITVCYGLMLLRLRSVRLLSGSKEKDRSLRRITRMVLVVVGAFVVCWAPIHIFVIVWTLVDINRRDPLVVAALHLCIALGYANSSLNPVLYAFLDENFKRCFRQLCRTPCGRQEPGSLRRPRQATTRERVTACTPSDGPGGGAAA
T3 sequence (P30547 whole entry): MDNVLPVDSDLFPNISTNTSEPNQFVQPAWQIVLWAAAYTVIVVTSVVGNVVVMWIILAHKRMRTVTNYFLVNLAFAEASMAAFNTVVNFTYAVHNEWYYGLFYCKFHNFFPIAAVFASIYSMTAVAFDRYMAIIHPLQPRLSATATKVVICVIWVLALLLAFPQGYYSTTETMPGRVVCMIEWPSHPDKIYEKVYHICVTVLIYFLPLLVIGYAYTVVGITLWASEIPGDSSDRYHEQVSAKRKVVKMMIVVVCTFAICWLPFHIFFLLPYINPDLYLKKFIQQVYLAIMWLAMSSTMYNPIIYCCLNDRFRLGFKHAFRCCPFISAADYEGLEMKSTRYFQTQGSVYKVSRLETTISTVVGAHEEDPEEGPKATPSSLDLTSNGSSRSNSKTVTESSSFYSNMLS

| Structure (SMILES) | Ki (MOR [1]) | Log[IC50±] (μ) (MOR [1]) | Ki^μ/Ki^δ (MOR [1]) | IC50 (DOR [2]) | Ki (hNK1; Ki^hNK1 (nM)) | Ki^hNK1/Ki^rNK1 (hNK1) | Ki (rNK1; Ki^rNK1 (nM)) | Ki (DOR [2]) | other results |
| --- | --- | --- | --- | --- | --- | --- | --- | --- | --- |
| CC(C)C[C@H](NC(=O)[C@@H]1CCCN1C(=O)[C@@H](CO)NC(=O)[C@H](Cc1ccccc1)NC(=O)CNC(=O)[C@@H](C)NC(=O)[C@@H](N)Cc1ccc(O)cc1)C(=O)N[C@@H](Cc1c[nH]c2ccccc12)C(=O)NCc1cc(C(F)(F)F)cc(C(F)(F)F)c1 [AKG101] | 200 nM | −6.35 ± 0.26 | 6/1 | 74.1 nM | 3 nM | 1/39 | 110 nM |  | IC50 (DOR [3]; [5]): 6.7 nM and 6.72 nM; Kb (NK1R; [6]): 28 ± 11.8 nM; GPI/LMMP (NK1R) Agonist (NK1R): None at 100 nM |
| CC(C)C[C@H](NC(=O)[C@@H]1CCCN1C(=O)[C@H](CC(N)=O)NC(=O)[C@H](Cc1ccccc1)NC(=O)CNC(=O)[C@@H](C)NC(=O)[C@@H](N)Cc1ccc(O)cc1)C(=O)N[C@@H](Cc1c[nH]c2ccccc12)C(=O)NCc1cc(C(F)(F)F)cc(C(F)(F)F)c1 [AKG104] |  | −6.93 ± 0.05 | 3/1 | 37.2 nM |  |  | 20 nM | 17 nM |  |
| CC(C)C[C@H](NC(=O)[C@@H]1CCCN1C(=O)[C@H](CCC(N)=O)NC(=O)[C@H](Cc1ccccc1)NC(=O)CNC(=O)[C@@H](C)NC(=O)[C@@H](N)Cc1ccc(O)cc1)C(=O)N[C@@H](Cc1c[nH]c2ccccc12)C(=O)NCc1cc(C(F)(F)F)cc(C(F)(F)F)c1 [AKG105] |  | −7.06 ± 0.18 |  | 20.4 nM | 1 nM |  | 12 nM | 9 nM |  |
| CC(C)C[C@H](NC(=O)[C@@H]1CCCN1C(=O)CNC(=O)[C@H](Cc1ccccc1)N(C)C(=O)CNC(=O)[C@@H](C)NC(=O)[C@@H](N)Cc1ccc(O)cc1)C(=O)N[C@@H](Cc1c[nH]c2ccccc12)C(=O)NCc1cc(C(F)(F)F)cc(C(F)(F)F)c1 [AKG113, H-Tyr-D-Ala-Gly-NMePhe-Gly-Pro-Leu-Trp-NH-Bn(3′,5′-(CF3)2)] (H-Y[dA]G[NMeF]GPLW-{NH(3,5-(CF3)2-benzyl)}) | 3 nM | −8.23 ± 0.03 | 1/15 | 100 nM |  | 1/4 | 60 nM | 46 nM | binding selectivity for MOR over DOR (MOR [1]): 15 times; GPI/MVD IC50 ratio (MOR [4]): 2/1; IC50 (MOR [4]; [7]): 79.2 nM; IC50 (DOR [3]; [5]): 38.7 ± 9.69 nM; Kb (NK1R; [6]): 14.9 ± 2.9 nM; GPI/LMMP (NK1R) Agonist (NK1R): None at 100 nM |
| CC(C)C[C@H](NC(=O)[C@@H]1CCCN1C(=O)[C@H](CO)NC(=O)[C@H](Cc1ccccc1)N(C)C(=O)CNC(=O)[C@@H](C)NC(=O)[C@@H](N)Cc1ccc(O)cc1)C(=O)N[C@@H](Cc1c[nH]c2ccccc12)C(=O)NCc1cc(C(F)(F)F)cc(C(F)(F)F)c1 [AKG126] (H-Y[dA]G[NMeF]SPLW-{NH(3,5-(CF3)2-benzyl)}) | 2 nM | −8.30 ± 0.11 | 1/31 | 148 nM | 1 nM | 1/37 |  |  | binding selectivity for MOR over DOR (MOR [1]): 31 times; GPI/MVD IC50 ratio (MOR [4]): 9/1; IC50 (MOR [4]; [7]): 240 nM; IC50 (MOR [4]; head of Table IX, read-out: GPI (MOR) ID50): 237 ± 29.2 nM; higher agonist activity at DOR compared to MOR (functional assays) (DOR [3]): 9 times; IC50 (DOR [3]; [5]): 25.9 ± 6.69 nM; Kb (NK1R; [6]): 17 nM and 16.5 nM; GPI/LMMP (NK1R) Agonist (NK1R): None at 30 nM |
| CC(C)C[C@H](NC(=O)[C@@H]1CCCN1C(=O)Cc1ccc(NC(=O)[C@H](Cc2ccccc2)N(C)C(=O)CNC(=O)[C@@H](C)NC(=O)[C@@H](N)Cc2ccc(O)cc2)cc1)C(=O)N[C@@H](Cc1c[nH]c2ccccc12)C(=O)NCc1cc(C(F)(F)F)cc(C(F)(F)F)c1 [AKG177, H-Tyr-D-Ala-Gly-NMePhe-4-Apac-Pro-Leu-Trp-NH-Bn(3′,5′-(CF3)2)] | 1 nM | −8.68 ± 0.19 | 1/70 | 148 nM |  | 1/14 |  | 70 nM | GPI/MVD IC50 ratio (MOR [4]): 1/1; IC50 (MOR [4]; [7]): 41 nM and 40.8 nM; IC50 (DOR [3]): 35 ± 7.89 nM; Kb (NK1R): 39.2 ± 7.9 nM; GPI/LMMP (NK1R) Agonist (NK1R): None at 100 nM |
| Cc1cc(O)cc(C)c1C[C@H](N)C(=O)N[C@H](C)C(=O)N(C)CC(=O)N(C)[C@@H](Cc1ccccc1)C(=O)N1CCC[C@H]1C(=O)N[C@@H](CC(C)C)C(=O)N[C@@H](Cc1c[nH]c2ccccc12)C(=O)NCc1cc(C(F)(F)F)cc(C(F)(F)F)c1 [AKG182, H-Dmt-D-Ala-NMeGly-NMePhe-Pro-Leu-Trp-NH-Bn(3′,5′-(CF3)2)] |  |  |  |  |  | 1/22 | 110 ± 18.3 nM |  |  |
| CC(C)C[C@H](NC(=O)[C@@H]1CCCN1C(=O)[C@H](Cc1ccccc1)NC(=O)[C@H](Cc1c[nH]c2ccccc12)NC(=O)[C@@H]1CCCN1C(=O)[C@@H](N)Cc1ccc(O)cc1)C(=O)N[C@@H](Cc1c[nH]c2ccccc12)C(=O)NCc1cc(C(F)(F)F)cc(C(F)(F)F)c1 [AKG221, H-Tyr-Pro-Trp-Phe-Pro-Leu-Trp-NH-Bn(3′,5′-(CF3)2)] (H-YPWFPLW-{NH(3,5-(CF3)2-benzyl)}) |  |  |  |  | 3.34 ± 0.32 nM |  | 38.5 ± 3.6 nM |  |  |
| CC(C)C[C@H](NC(=O)[C@@H]1CCCN1C(=O)[C@H](Cc1ccccc1)N(C)C(=O)[C@H](Cc1c[nH]c2ccccc12)NC(=O)[C@@H]1CCCN1C(=O)[C@@H](N)Cc1ccc(O)cc1)C(=O)N[C@@H](Cc1c[nH]c2ccccc12)C(=O)NCc1cc(C(F)(F)F)cc(C(F)(F)F)c1 [AKG223, H-Tyr-Pro-Trp-NMePhe-Pro-Leu-Trp-NH-Bn(3′,5′-(CF3)2)] (H-YPW[NMeF]PLW-{NH(3,5-(CF3)2-benzyl)}) |  |  |  |  | 3.59 ± 0.3 nM |  | 10.1 ± 6.3 nM |  |  |
| CC(C)C[C@H](NC(=O)[C@@H]1CCCN1C(=O)[C@H](Cc1ccccc1)N(C)C(=O)[C@H](Cc1c[nH]c2ccccc12)N(C)C(=O)[C@@H]1CCCN1C(=O)[C@@H](N)Cc1ccc(O)cc1)C(=O)N[C@@H](Cc1c[nH]c2ccccc12)C(=O)NCc1cc(C(F)(F)F)cc(C(F)(F)F)c1 [AKG225, H-Tyr-Pro-NMeTrp-NMePhe-Pro-Leu-Trp-NH-Bn(3′,5′-(CF3)2)] (H-YP[NMeW][NMeF]PLW-{NH(3,5-(CF3)2-benzyl)}) |  |  |  |  | 14.8 ± 1.4 nM | 1/20 | 302 ± 78.5 nM |  |  |
| CC(C)C[C@H](NC(=O)[C@@H]1CCCN1C(=O)CNC(=O)[C@H](CCC(N)=O)NC(=O)[C@H](Cc1ccccc1)N(C)C(=O)CNC(=O)[C@@H](C)NC(=O)[C@@H](N)Cc1ccc(O)cc1)C(=O)N[C@@H](Cc1c[nH]c2ccccc12)C(=O)NCc1cc(C(F)(F)F)cc(C(F)(F)F)c1 [AKG-SK-145] (H-Y[dA]G[NMeF]QGPLW-{NH(3,5-(CF3)2-benzyl)}) | 2 nM | −8.43 ± 0.08 | 1/3 | 14.5 nM | 7.5 nM | 1/16 | 120 nM and 125 nM | 6 nM |  |
| Cc1cc(O)cc(C)c1C[C@H](N)C(=O)N[C@H](C)C(=O)NCC(=O)N(C)[C@@H](Cc1ccccc1)C(=O)N[C@@H](CCC(N)=O)C(=O)NCC(=O)N1CCC[C@H]1C(=O)N[C@@H](CC(C)C)C(=O)N[C@@H](Cc1c[nH]c2ccccc12)C(=O)NCc1cc(C(F)(F)F)cc(C(F)(F)F)c1 [AKG-SK-146] (H-[Dmt][dA]G[NMeF]QGPLW-{NH(3,5-(CF3)2-benzyl)}; N-terminus assumed) | 0.6 nM | −8.94 ± 0.17 | 1/1 | 1.41 nM | 6.37 ± 1.54 nM | 1/15 | 78.6 ± 9.8 nM | 0.6 nM |  |
| CC(C)C[C@H](NC(=O)[C@@H]1CCCN1C(=O)[C@H](Cc1ccccc1)NC(=O)CNC(=O)[C@@H](C)NC(=O)[C@@H](N)Cc1ccc(O)cc1)C(=O)N[C@@H](Cc1c[nH]c2ccccc12)C(=O)NCc1cc(C(F)(F)F)cc(C(F)(F)F)c1 [TY012, reference compound] |  | −7.7 ± 0.21 |  |  |  |  |  |  | Ki (hNK1; read-out: Ki^hNK1): 0.61 nM; Ki (rNK1; read-out: Ki^rNK1): 33 nM |
| CSCC[C@H](NC(=O)[C@H](Cc1ccccc1)NC(=O)CNC(=O)[C@@H](C)NC(=O)[C@@H](N)Cc1ccc(O)cc1)C(=O)N1CCC[C@H]1C(=O)N[C@@H](CC(C)C)C(=O)N[C@@H](Cc1c[nH]c2ccccc12)C(=O)NCc1cc(C(F)(F)F)cc(C(F)(F)F)c1 [TY027, H-Tyr-D-Ala-Gly-Phe-Met-Pro-Leu-Trp-NH-Bn(3′,5′-(CF3)2), reference compound] |  |  |  |  | 1.5 nM and 2 nM |  | 10 nM and 14 nM |  |  |
